Experimental data as given in PMC6968547, “Design, synthesis and cholinesterase inhibitory properties of new oxazole benzylamine derivatives” (Journal of Enzyme Inhibition and Medicinal Chemistry, 2020).
Like-named read-outs stand apart in the source and are kept apart here.

Legend:
[1] = target: T1, BChE isolated from human plasma (Homo sapiens, UniProt P06276); assay: Reversible inhibition of BChE, Ellman method; type: biochemical; details: for IC50: 0.1 M phosphate buffer pH 7.4, 25 °C, substrate ATCh, at least three experiments
T1 construct: BChE isolated from human plasma; from tissue; host or cells: human plasma
T1 sequence (P06276 29-602): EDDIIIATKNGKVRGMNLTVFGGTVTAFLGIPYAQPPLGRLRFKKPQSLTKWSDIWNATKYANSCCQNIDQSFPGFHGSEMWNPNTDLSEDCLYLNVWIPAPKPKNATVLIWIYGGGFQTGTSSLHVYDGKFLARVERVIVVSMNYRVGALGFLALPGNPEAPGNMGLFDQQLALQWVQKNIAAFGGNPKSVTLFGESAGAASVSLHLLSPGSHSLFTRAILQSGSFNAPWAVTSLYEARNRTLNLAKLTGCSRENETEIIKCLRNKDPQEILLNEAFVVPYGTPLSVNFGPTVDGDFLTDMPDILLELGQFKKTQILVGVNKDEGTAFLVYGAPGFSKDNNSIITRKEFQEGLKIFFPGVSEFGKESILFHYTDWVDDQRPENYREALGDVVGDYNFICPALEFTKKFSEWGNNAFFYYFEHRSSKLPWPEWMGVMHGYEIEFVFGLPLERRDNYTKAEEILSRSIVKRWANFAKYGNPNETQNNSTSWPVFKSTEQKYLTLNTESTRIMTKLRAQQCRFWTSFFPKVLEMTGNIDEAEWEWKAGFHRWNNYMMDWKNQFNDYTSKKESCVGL
Description: Inhibition potency of novel compounds was evaluated for recombinant human AChE (prepared as described earlier[25] and kindly donated by Prof Palmer Taylor, Skaggs School of Pharmacy and Pharmaceutical Sciences, University of California at San Diego, La Jolla, USA) and BChE isolated from human plasma (kindly donated by late Dr Douglas Cerasoli and Dr David Lenz, […], Edgewood, MD). The inhibition mixture contained a 0.1 M phosphate buffer, pH 7.4, enzyme, tested compound, and reagent, 5,5'-dithiobis(2-nitrobenzoic acid) (DTNB, 0.3 mM; Sigma Chemical Co., St. Louis, MO, USA). Enzyme activity was measured upon addition of substrate, acetylthiocholine (ATCh, 0.2 or 0.1 mM; Sigma Chemical Co., St. Louis, MO, USA) by the Ellman method[26] at 25 °C and 412 nm, on a Tecan Infinite M200PRO plate reader (Tecan Austria, GmbH, Salzburg, Austria). Due to the low solubility, a stock solution of the tested compounds was prepared in DMSO or methanol (Kemika, Zagreb, Croatia), and a corresponding solvent was in controls as well. The IC50 values were determined from at least three experiments by a nonlinear fit of the compound concentration logarithm values vs. % of enzyme activity using Prism6 software (GraphPad Prism 6 Software, San Diego, USA).

recombinant human AChE = target: T2, recombinant human AChE (Homo sapiens, UniProt P22303); assay: Reversible inhibition of AChE, Ellman method; type: biochemical; details: 0.1 M phosphate buffer pH 7.4, 25 °C, substrate ATCh; maximal tested concentration 100 µM for the trans derivatives (DMSO inhibits AChE); read-out: IC50 AChE (IC50 ± SE)
T2 construct: made in house
T2 sequence (P22303 32-614): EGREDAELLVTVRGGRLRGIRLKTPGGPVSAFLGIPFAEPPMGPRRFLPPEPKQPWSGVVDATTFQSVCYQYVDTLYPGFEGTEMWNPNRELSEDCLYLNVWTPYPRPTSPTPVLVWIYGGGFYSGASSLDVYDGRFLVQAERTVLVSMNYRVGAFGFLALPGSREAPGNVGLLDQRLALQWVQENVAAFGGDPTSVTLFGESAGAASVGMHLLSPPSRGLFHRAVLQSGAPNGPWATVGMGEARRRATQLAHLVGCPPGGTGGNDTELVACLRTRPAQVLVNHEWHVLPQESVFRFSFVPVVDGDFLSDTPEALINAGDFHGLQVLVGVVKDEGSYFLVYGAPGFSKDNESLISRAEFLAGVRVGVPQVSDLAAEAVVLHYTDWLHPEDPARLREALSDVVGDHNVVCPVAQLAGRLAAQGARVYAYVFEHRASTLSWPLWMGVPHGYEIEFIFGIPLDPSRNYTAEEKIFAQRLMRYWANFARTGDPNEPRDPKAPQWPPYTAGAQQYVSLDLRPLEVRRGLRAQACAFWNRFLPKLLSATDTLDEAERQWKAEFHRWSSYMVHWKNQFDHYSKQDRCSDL

[2] = read-out: IC50 BChE (IC50 ± SE)

Cc1cccc(CNc2ccc(/C=C/c3cnco3)cc2)c1 [trans-7, (E)-N-(3-methylbenzyl)-4–(2-(oxazol-5-yl)vinyl)aniline]
IC50 [1, 2]: 130 ± 26 µM | IC50 (recombinant human AChE): > 100 µM

Clc1ccc(CNc2ccc(/C=C/c3cnco3)cc2)cc1 [trans-5, (E)-N-(4-chlorobenzyl)-4–(2-(oxazol-5-yl)vinyl)aniline]
IC50 [1, 2]: 87 ± 12 µM | IC50 (recombinant human AChE): > 100 µM

Nc1ccc2ccc3ocnc3c2c1 [Compound 23, Naphtho[1,2-d]oxazol-8-amine]
IC50 [1, 2]: 1000 ± 650 µM | IC50 (recombinant human AChE): 120 ± 46 µM

c1csc(CNc2ccc3ccc4ocnc4c3c2)c1 [Compound 21, N-(thiophen-2-ylmethyl)naphtho[1,2-d]oxazol-8-amine]
IC50 [1, 2]: 35 ± 7.1 µM | IC50 (recombinant human AChE): 51 ± 20 µM

Nc1ccc(/C=C\c2cnco2)cc1 [cis-22, (Z)-4–(2-(oxazol-5-yl)vinyl)aniline]
IC50 [1, 2]: 110 ± 58 µM | IC50 (recombinant human AChE): 190 ± 100 µM

COc1cccc(CNc2ccc(/C=C/c3cnco3)cc2)c1 [trans-8, (E)-N-(3-methoxybenzyl)-4–(2-(oksazol-5-yl)vinyl)aniline]
IC50 [1, 2]: 36 ± 4.4 µM | IC50 (recombinant human AChE): > 100 µM

Fc1ccc(CNc2ccc3ccc4ocnc4c3c2)cc1 [Compound 20, N-(4-fluorobenzyl)naphtho[1,2-d]oxazol-8-amine]
IC50 [1, 2]: 12 ± 1.3 µM | fold higher potency for BChE than counterpart trans-6 ([1]; ratio of IC50 vs trans-6): about 8 fold | IC50 (recombinant human AChE): 45 ± 17 µM

Fc1cccc(CNc2ccc(/C=C/c3cnco3)cc2)c1 [trans-10, (E)-N-(3-fluorobenzyl)-4–(2-(oxazol-5-yl)vinyl)aniline]
IC50 [1, 2]: 32 ± 5.2 µM | IC50 (recombinant human AChE): > 100 µM

Fc1ccc(CNc2ccc(/C=C/c3cnco3)cc2)cc1 [trans-6, (E)-N-(4-fluorobenzyl)-4–(2-(oxazol-5-yl)vinyl)aniline]
IC50 [1, 2]: 80 ± 10 µM | IC50 (recombinant human AChE): > 100 µM

Cc1ccc(CNc2ccc(/C=C/c3cnco3)cc2)cc1 [trans-3, (E)-N-(4-methylbenzyl)-4–(2-(oxazol-5-yl)vinyl)aniline]
IC50 [1, 2]: 120 ± 19 µM | IC50 (recombinant human AChE): > 100 µM

CCN(CC)C(C)CN1c2ccccc2Sc2ccccc21 (centres unmarked) [Ethopropazine, reference compound]
IC50 ([1]; IC50 BChE (IC50 ± SE)): 0.046 ± 0.0037 µM

COc1ccccc1CNc1ccc(/C=C/c2cnco2)cc1 [trans-12, (E)-N-(2-methoxybenzyl)-4–(2-(oxazol-5-yl)vinyl)aniline]
IC50 [1, 2]: 28 ± 5.2 µM | IC50 (recombinant human AChE): > 100 µM

C(=C\c1cnco1)/c1ccc(NCc2ccco2)cc1 [trans-17, (E)-N-(furan-2-ylmethyl)-4–(2-(oxazol-5-yl)vinyl)aniline]
IC50 [1, 2]: 65 ± 10 µM | IC50 (recombinant human AChE): > 100 µM

c1ccc(CNc2ccc3ccc4ocnc4c3c2)cc1 [Compound 19, N-benzylnaphtho[1,2-d]oxazol-8-amine]
IC50 [1, 2]: 140 ± 24 µM | IC50 (recombinant human AChE): 68 ± 25 µM

C(=C/c1cnco1)/c1ccc(NCc2cccs2)cc1 [cis-18, (Z)-4–(2-(oxazol-5-yl)vinyl)-N-(thiophen-2-ylmethyl)aniline]
IC50 [1, 2]: 5.7 ± 0.8 µM | times more potent inhibitor of BChE than trans-12, trans-10 and trans-8 ([1]; ratio of IC50 vs trans-12, trans-10, trans-8): about 5 times | IC50 (recombinant human AChE): 160 ± 100 µM

Cc1ccccc1CNc1ccc(/C=C/c2cnco2)cc1 [trans-11, (E)-N-(2-methylbenzyl)-4–(2-(oxazol-5-yl)vinyl)aniline]
IC50 [1, 2]: 160 ± 35 µM | fold lower BChE binding affinity than the most potent inhibitor trans-12 ([1]; ratio of IC50 vs trans-12): 5.5 fold | IC50 (recombinant human AChE): > 100 µM

COc1ccc(CNc2ccc(/C=C/c3cnco3)cc2)cc1 [trans-4, (E)-N-(4-methoxybenzyl)-4–(2-(oxazol-5-yl)vinyl)aniline]
IC50 [1, 2]: 110 ± 15 µM | IC50 (recombinant human AChE): > 100 µM

C(=C\c1cnco1)/c1ccc(NCc2ccccc2)cc1 [trans-2, (E)-N-benzyl-4–(2-(oxazol-5-yl)vinyl)aniline]
IC50 [1, 2]: 120 ± 22 µM | IC50 (recombinant human AChE): > 100 µM
